According to patent US8362012B2, “Benzoxazine benzimidazole derivative, a pharmaceutical composition comprising the same, and a use thereof” (Daewoong Pharmaceutical Co., Ltd., priority 2008, dated 2013):

Key:
[1] = molecular target: T1, human vanilloid-1 (hVR-1) in hVR-1-HEK293 cell line (Homo sapiens, UniProt Q8NER1); test: Inhibitory effect on calcium influx via a vanilloid receptor (capsaicin-stimulated, Fluo-3/AM); assay type: cell-based; conditions: hVR-1-HEK293 cells, 1 μM of capsaicin, compounds 0.015˜2000 nM; read-out: I.A. (inhibitory activity), IC50 on intracellular calcium influx
T1 construct: expressed in transfected cells; host or cells: HEK293 Tet-on strain, doxycycline-induced
In short: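 Doxycycline-induced (1 μg/mL, 2 days) hVR-1-HEK293 cells loaded with Fluo-3/AM for 90 min at 37° C, then stimulated with 1 μM capsaicin. Calcium influx expressed as background-corrected fluorescence relative to positive control, analysed by Hill equation and graded by activity criteria.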

ICR male mice = test: Phenyl-p-quinone (PBQ)-induced writhing experiment using mice; assay type: in vivo; conditions: orally administered, PBQ (0.02%) intraperitoneally after 1 hour, writhing counted for 10 min
Method: In order to evaluate the effect on pain of the compounds prepared in the Examples, behaviors such as twisting or writhing of body resulted from pain were verified by the phenyl-p-quinone (PBQ)-induced writhing experiment using mice. 5 week-old ICR male mice were used as experimental animals and PBQ (0.02%), as a chemical stimulator. The suspensions of 20 mg of the compounds of the present invention and an excipient such as Na—CMC (sodium carboxymethyl cellulose) in 10 mL of saline were used as test compounds. The test compounds were orally administered to the mice and after 1 hour, PBQ was intraperitoneally administrated in an amount of 10 mL per kg of body weight. Also, as a control group, equivalent amounts of BCTC were administered. The writhing number of each mouse was measured for 10 min starting from 5 min after the administration, and the analgesic effect was verified by counting the reduced number compared to the control group administered with only excipient and calculating the % inhibitory rate according to the following Formula 2. % inhibition rate=(writhing # of control group−writhing # of test group)/writhing # of control group×100 [Formula 2]

T1 sequence (Q8NER1 whole entry): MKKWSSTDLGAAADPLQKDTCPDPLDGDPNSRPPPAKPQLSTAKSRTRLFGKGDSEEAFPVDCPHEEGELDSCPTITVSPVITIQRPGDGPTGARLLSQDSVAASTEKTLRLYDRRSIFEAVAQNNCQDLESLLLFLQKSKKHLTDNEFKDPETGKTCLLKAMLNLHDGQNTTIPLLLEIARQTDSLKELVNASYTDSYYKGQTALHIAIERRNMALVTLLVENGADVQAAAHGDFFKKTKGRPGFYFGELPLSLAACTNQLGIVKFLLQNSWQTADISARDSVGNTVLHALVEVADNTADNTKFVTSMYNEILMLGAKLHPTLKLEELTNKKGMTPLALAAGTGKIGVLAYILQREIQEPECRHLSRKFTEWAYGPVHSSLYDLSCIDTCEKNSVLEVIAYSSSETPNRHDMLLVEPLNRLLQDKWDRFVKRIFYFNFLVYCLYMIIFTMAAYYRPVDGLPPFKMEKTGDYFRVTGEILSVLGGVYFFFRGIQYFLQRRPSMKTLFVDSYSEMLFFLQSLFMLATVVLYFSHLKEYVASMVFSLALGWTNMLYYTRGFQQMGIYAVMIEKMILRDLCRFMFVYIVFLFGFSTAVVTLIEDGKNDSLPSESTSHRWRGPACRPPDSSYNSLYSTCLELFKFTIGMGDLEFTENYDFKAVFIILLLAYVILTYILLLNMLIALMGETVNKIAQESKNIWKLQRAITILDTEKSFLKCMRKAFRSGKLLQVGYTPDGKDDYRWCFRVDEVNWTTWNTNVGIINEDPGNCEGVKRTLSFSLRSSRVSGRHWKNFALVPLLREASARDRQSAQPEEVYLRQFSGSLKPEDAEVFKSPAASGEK

Structure (SMILES)	IC50 [1] [µM]	I.A. (inhibitory activity), % inhibition rate of writhing (ICR male mice)
C=Cc1ccc(N2c3cccc(-c4nc5cc(F)c(F)cc5[nH]4)c3OC[C@@H]2CO)nc1 [Example 69, [(S)-8-(5,6-difluoro-1H-benzimidazol-2-yl)-4-(5-vinyl-pyridin-2-yl)-3,4-dihydro-2H-benzo[1,4]oxazin-3-yl]-methanol]	0.02 to 0.1	+++ (51-80%)
CCc1ccc(N2c3cccc(-c4nc5c(Cl)cc(C(F)(F)F)cc5[nH]4)c3OC[C@@H]2CO)nc1 [Example 80, [(S)-8-(4-chloro-6-trifluoromethyl-1H-benzimidazol-2-yl)-4-(5-ethyl-pyridin-2-yl)-3,4-dihydro-2H-benzo[1,4]oxazin-3-yl]-methanol]	< 0.02	+++ (51-80%)
CCc1ccc(N2c3cccc(-c4nc5c(Br)cc(C(F)(F)F)cc5[nH]4)c3OC[C@@H]2CO)nc1 [Example 81, [(S)-8-(4-bromo-6-trifluoromethyl-1H-benzimidazol-2-yl)-4-(5-ethyl-pyridin-2-yl)-3,4-dihydro-2H-benzo[1,4]oxazin-3-yl]-methanol]	< 0.02	+++ (51-80%)
CCc1ccc(N2c3cccc(-c4nc5ccc(OC(F)(F)F)cc5[nH]4)c3OC[C@@H]2CO)nc1 [Example 82, [(S)-4-(5-ethyl-pyridin-2-yl)-8-(6-trifluoromethoxy-1H-benzimidazol-2-yl)-3,4-dihydro-2H-benzo[1,4]oxazin-3-yl]-methanol]	0.02 to 0.1	+++ (51-80%)
CCc1ccc(N2c3cccc(-c4nc5c(F)cc(Br)cc5[nH]4)c3OC[C@@H]2CO)nc1 [Example 85, [(S)-8-(6-bromo-4-fluoro-1H-benzimidazol-2-yl)-4-(5-ethyl-pyridin-2-yl)-3,4-dihydro-2H-benzo[1,4]oxazin-3-yl]-methanol]	0.02 to 0.1	+++ (51-80%)
CCc1ccc(N2c3cccc(-c4nc5c(F)cc(F)cc5[nH]4)c3OC[C@@H]2CO)nc1 [Example 86, [(S)-8-(4,6-difluoro-1H-benzimidazol-2-yl)-4-(5-ethyl-pyridin-2-yl)-3,4-dihydro-2H-benzo[1,4]oxazin-3-yl]-methanol]	< 0.02	+++ (51-80%)
CCc1ccc(N2c3cccc(-c4nc5ccc(C#N)cc5[nH]4)c3OC[C@@H]2CO)nc1 [Example 87, 2-[(S)-4-(5-ethyl-pyridin-2-yl)-3-hydroxymethyl-3,4-dihydro-2H-benzo[1,4]oxazin-8-yl]-3H-benzimidazol-5-carbonitrile]	< 0.02	+++ (51-80%)
COC[C@H]1COc2c(-c3nc4ccc(C(C)(C)C)cc4[nH]3)cccc2N1c1ccc(C)cn1 [Example 88, (S)-8-(6-tert-butyl-1H-benzimidazol-2-yl)-3-methoxymethyl-4-(5-methyl-pyridin-2-yl)-3,4-dihydro-2H-benzo[1,4]oxazine]	< 0.02	++ (20˜50%)
COC[C@H]1COc2c(-c3nc4ccc(Br)cc4[nH]3)cccc2N1c1ccc(C)cn1 [Example 89, (S)-8-(6-bromo-1H-benzimidazol-2-yl)-3-methoxymethyl-4-(5-methyl-pyridin-2-yl)-3,4-dihydro-2H-benzo[1,4]oxazine]	< 0.02	+++ (51-80%)
COC[C@H]1COc2c(-c3nc4ccc(C(F)(F)F)cc4[nH]3)cccc2N1c1ccc(C)cn1 [Example 90, (S)-3-methoxymethyl-4-(5-methyl-pyridin-2-yl)-8-(6-trifluoromethyl-1H-benzimidazol-2-yl)-3,4-dihydro-2H-benzo[1,4]oxazine]	< 0.02	+++ (51-80%)
COC[C@H]1COc2c(-c3nc4ccc(Cl)cc4[nH]3)cccc2N1c1ccc(C)cn1 [Example 91, (S)-3-methoxymethyl-4-(5-methyl-pyridin-2-yl)-8-(6-chloro-1H-benzimidazol-2-yl)-3,4-dihydro-2H-benzo[1,4]oxazine]	< 0.02	++ (20˜50%)
COC[C@H]1COc2c(-c3nc4c(Cl)cc(C(F)(F)F)cc4[nH]3)cccc2N1c1ccc(C)cn1 [Example 92, (S)-8-(4-chloro-6-trifluoromethyl-1H-benzimidazol-2-yl)-3-methoxymethyl-4-(5-methyl-pyridin-2-yl)-3,4-dihydro-2H-benzo[1,4]oxazine]	< 0.02	++ (20˜50%)
COC[C@H]1COc2c(-c3nc4c(Br)cc(C(F)(F)F)cc4[nH]3)cccc2N1c1ccc(C)cn1 [Example 93, (S)-8-(4-bromo-6-trifluoromethyl-1H-benzimidazol-2-yl)-3-methoxymethyl-4-(5-methyl-pyridin-2-yl)-3,4-dihydro-2H-benzo[1,4]oxazine]	< 0.02	++ (20˜50%)
COC[C@H]1COc2c(-c3nc4c(F)cc(Br)cc4[nH]3)cccc2N1c1ccc(C)cn1 [Example 94, (S)-8-(6-bromo-4-fluoro-1H-benzimidazol-2-yl)-3-methoxymethyl-4-(5-methyl-pyridin-2-yl)-3,4-dihydro-2H-benzo[1,4]oxazine]	< 0.02	+++ (51-80%)
COC[C@H]1COc2c(-c3nc4cc(Cl)c(Cl)cc4[nH]3)cccc2N1c1ccc(C)cn1 [Example 95, (S)-8-(5,6-dichloro-1H-benzimidazol-2-yl)-3-methoxymethyl-4-(5-methyl-pyridin-2-yl)-3,4-dihydro-2H-benzo[1,4]oxazine]	< 0.02	+++ (51-80%)
COC[C@H]1COc2c(-c3nc4c(C(F)(F)F)cc(C(F)(F)F)cc4[nH]3)cccc2N1c1ccc(C)cn1 [Example 96, (S)-8-(4,6-bis-trifluoromethyl-1H-benzimidazol-2-yl)-3-methoxymethyl-4-(5-methyl-pyridin-2-yl)-3,4-dihydro-2H-benzo[1,4]oxazine]	< 0.02	++++ (>80%)
COC[C@H]1COc2c(-c3nc4c(Br)cc(Br)cc4[nH]3)cccc2N1c1ccc(C)cn1 [Example 97, (S)-8-(4,6-dibromo-1H-benzimidazol-2-yl)-3-methoxymethyl-4-(5-methyl-pyridin-2-yl)-3,4-dihydro-2H-benzo[1,4]oxazine]	< 0.02	++ (20˜50%)
COC[C@H]1COc2c(-c3nc4ccc(F)cc4[nH]3)cccc2N1c1ccc(C)cn1 [Example 98, (S)-8-(6-fluoro-1H-benzimidazol-2-yl)-3-methoxymethyl-4-(5-methyl-pyridin-2-yl)-3,4-dihydro-2H-benzo[1,4]oxazine]	0.02 to 0.1	++ (20˜50%)
COC[C@H]1COc2c(-c3nc4ccc(OC(F)(F)F)cc4[nH]3)cccc2N1c1ccc(C)cn1 [Example 99, (S)-3-methoxymethyl-4-(5-methyl-pyridin-2-yl)-8-(6-trifluoromethoxy-1H-benzimidazol-2-yl)-3,4-dihydro-2H-benzo[1,4]oxazine]	0.02 to 0.1	++++ (>80%)
